Results: patent publication US9784731B2, “Methods of monitoring and analyzing metabolic activity profiles diagnostic and therapeutic uses of same” (priority 2011, dated 2017)

How the values were obtained:
hPBMCs = test: metabolic activity (MA) test, extracellular acidification of PBMCs; format: cell-based, human; details: hPBMCs of cancer patients, increasing PSA concentrations, FIGS. 8A-D
Description: Fresh peripheral blood mononuclear cells (PBMCs) were isolated by Ficoll-Paque (UNI-SEP, Novamed) and gradient centrifugation. The pellet was resuspended in working solution (WS) (PBS with calcium and magnesium) including the fluorescent probe (HPTS) at a final concentration of 5×10^6 cells/ml.
Each well in a black non-binding, low-volume 384 multi-well plate (Greiner Bio-One) was loaded with 10 μl of the PBMCs solution and 10 μl of working solution plus HPTS including one of ten reagents in 8 increasing concentrations. Thus the final concentration of the probe in each well was 1 μM, and the final concentration of the PBMCs was 2.5×10^6 cells/ml in 20 μl physiological working solution containing 10 mM phosphate buffer around pH 7.3. […] The acidification process was monitored each 5 min during 1 hour of incubation at 37° C. by a commercial fluorescence scanner (TECAN Infinite M200). First, the scanner monitored the acidification process without sealing (“OPEN” mode) during 30 min (6 cycles) and then, to avoid ventilation of CO2 and NH3 from each well, the multi-well plate was sealed hermetically (ThermalSeal RT™, EXCEL Scientific, Inc.) (“CLOSE” mode). Next, the acidification process was monitored again during 30 min (6 cycles). In order to increase the signal to noise ratio, the fluorescence intensities at 513 nm were measured sequentially under excitation at 455 nm and 403 nm per well. […]

many cell types = details: intracellular pH measurements, overnight incubation at 2 mM; cited from earlier work
[1] = in aqueous (physiological) buffers; cited from earlier work

Compound | MA-test profile under stimulation (hPBMCs) | toxicity (many cell types) | pKa [1]
PSA: normal prostate tissue specific antigen peptide (146-154aa) recognized by cytotoxic T lymphocytes (PALGTTCYA; UniProt P07288 146-154, looked up, fragment) | marked peaks at optimal concentrations | – | –
O=S(=O)(O)c1cc(O)c2ccc3c(S(=O)(=O)O)cc(S(=O)(=O)O)c4ccc1c2c34 [HPTS, 8-Hydroxypyrene-1,3,6-trisulfonic acid] | – | low-toxicity | ~7.3
